Assay results reported in ChEMBL document CHEMBL1201862, “PubChem BioAssay data set” (2004).
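Values below derive from 48-hour exposures of cells grown in 96-well plates, with endpoints linearly interpolated between the two concentrations bracketing the appropriate inhibition level. GI50 = concentration required for 50% inhibition of growth.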 The source made the active and inactive calls. Rule as the data show it: active = GI50 up to about 1.1 µM and inactive = higher.

Key:
Assay in all cases: inhibition of tumour cell growth, NCI panel, 48 h
HL-60 = system: HL-60
COLO 205 = system: COLO 205
UACC-62 = system: UACC-62
SF-539 = system: SF-539
M14 = system: M14
SK-MEL-5 = system: SK-MEL-5
Malme-3M = system: Malme-3M
HOP-62 = system: HOP-62
TK-10 = system: TK-10
MOLT-4 = system: MOLT-4
CAKI-1 = system: CAKI-1
OVCAR-4 = system: OVCAR-4
OVCAR-5 = system: OVCAR-5
HOP-92 = system: HOP-92
SK-MEL-2 = system: SK-MEL-2
RXF 393 = system: RXF 393

Measured: GI50

N#CCCC(C#N)(C#N)CCC#N
inactive: HL-60 > 100 µM | COLO 205 > 100 µM | UACC-62 > 100 µM | SF-539 > 100 µM | M14 > 100 µM | SK-MEL-5 > 100 µM | Malme-3M > 100 µM | HOP-62 > 100 µM | TK-10 > 100 µM | MOLT-4 > 100 µM

S=P(N1CCCC1)(N1CC1)N1CC1
inactive: HL-60 56.2 µM | COLO 205 > 100 µM | UACC-62 > 100 µM | SF-539 > 100 µM | M14 > 100 µM | SK-MEL-5 > 100 µM | CAKI-1 49.4 µM | OVCAR-4 > 100 µM | OVCAR-5 > 100 µM | HOP-92 > 10 µM | Malme-3M > 100 µM | HOP-62 > 100 µM | SK-MEL-2 > 100 µM | TK-10 > 100 µM | MOLT-4 71.4 µM | RXF 393 > 100 µM

C/C(CN1C(=O)c2ccccc2C1=O)=N\NS(=O)(=O)c1ccc(Br)cc1
inactive: HL-60 > 100 µM | COLO 205 > 100 µM | UACC-62 > 100 µM | SF-539 > 100 µM | M14 > 100 µM | SK-MEL-5 > 100 µM | CAKI-1 > 100 µM | OVCAR-4 > 100 µM | OVCAR-5 > 100 µM | HOP-92 74.8 µM | Malme-3M > 100 µM | HOP-62 > 100 µM | SK-MEL-2 > 100 µM | TK-10 > 100 µM | MOLT-4 > 100 µM | RXF 393 > 100 µM

CCC1(c2c(F)c(F)c(N)c(F)c2F)CCC(=O)NC1=O (stereo not given)
inactive: HL-60 > 100 µM | COLO 205 > 100 µM | UACC-62 > 100 µM | SF-539 > 100 µM | M14 > 100 µM | SK-MEL-5 > 100 µM | CAKI-1 > 100 µM | OVCAR-4 > 100 µM | OVCAR-5 > 100 µM | HOP-92 > 100 µM | Malme-3M > 100 µM | HOP-62 > 100 µM | SK-MEL-2 > 100 µM | TK-10 > 100 µM | MOLT-4 > 100 µM

CC(C)(C)/N=C1/CC(C)(C)c2ccccc2/C(=N\c2ccccc2)S1
inactive: HL-60 12.2 µM | COLO 205 23.3 µM | UACC-62 27 µM | SF-539 60.4 µM | M14 39.5 µM | SK-MEL-5 24.6 µM | CAKI-1 40.2 µM | OVCAR-5 37.9 µM | Malme-3M 27.9 µM | HOP-62 44.7 µM | SK-MEL-2 34.4 µM | TK-10 75.9 µM | MOLT-4 14.8 µM | RXF 393 21.4 µM

CO/S(=N/S(=O)(=O)c1ccccc1)c1ccccc1[N+](=O)[O-] (stereo not given)
inactive: COLO 205 > 100 µM | UACC-62 > 100 µM | SF-539 > 100 µM | M14 > 100 µM | SK-MEL-5 > 100 µM | CAKI-1 > 100 µM | OVCAR-4 > 100 µM | OVCAR-5 > 100 µM | Malme-3M > 100 µM | HOP-62 > 100 µM | SK-MEL-2 > 100 µM | MOLT-4 > 100 µM

CCP(C)(=O)CC
inactive: HL-60 > 100 µM | COLO 205 > 100 µM | UACC-62 > 100 µM | SF-539 > 100 µM | M14 > 100 µM | SK-MEL-5 > 100 µM | CAKI-1 > 100 µM | OVCAR-4 > 100 µM | OVCAR-5 > 100 µM | HOP-92 > 100 µM | Malme-3M > 100 µM | HOP-62 > 100 µM | SK-MEL-2 > 100 µM | TK-10 > 100 µM | MOLT-4 > 100 µM | RXF 393 > 100 µM

CC(C)C(Sc1nc(-c2ccccc2)c(-c2ccccc2)[nH]1)C(=O)N/N=C/c1ccc(Cl)cc1 (stereo not given)
active: MOLT-4 0.0382 µM
inactive: HL-60 26.3 µM | COLO 205 17.7 µM | UACC-62 22.8 µM | SF-539 21.1 µM | M14 17.7 µM | SK-MEL-5 16.7 µM | CAKI-1 44.5 µM | OVCAR-4 27.7 µM | OVCAR-5 22.6 µM | HOP-92 21 µM | Malme-3M 23.7 µM | HOP-62 23.2 µM | SK-MEL-2 17.5 µM | TK-10 21.5 µM

N#CC(NNC(=O)c1ccccc1O)c1ccc(O)cc1 (stereo not given)
inactive: HL-60 5.32 µM | COLO 205 29.2 µM | UACC-62 1.95 µM | SF-539 3.78 µM | M14 6.93 µM | SK-MEL-5 19.4 µM | CAKI-1 6 µM | OVCAR-4 13.1 µM | OVCAR-5 17.6 µM | HOP-92 3.48 µM | Malme-3M 29.6 µM | HOP-62 22.5 µM | SK-MEL-2 2.67 µM | TK-10 39.5 µM | MOLT-4 4.17 µM | RXF 393 1.48 µM

NC1=NN(c2ccccc2)C(=O)C1C(=O)CCC(=O)Nc1cccc(C(F)(F)F)c1 (stereo not given)
inactive: HL-60 > 100 µM | COLO 205 > 100 µM | UACC-62 53 µM | SF-539 > 100 µM | M14 41.2 µM | SK-MEL-5 > 100 µM | CAKI-1 > 100 µM | OVCAR-4 > 100 µM | OVCAR-5 > 100 µM | HOP-92 > 100 µM | Malme-3M > 100 µM | HOP-62 > 100 µM | SK-MEL-2 > 100 µM | TK-10 > 100 µM | MOLT-4 > 100 µM | RXF 393 > 100 µM

O=C(/C=N/O)Nc1cccc(Cl)c1I
inactive: HL-60 34.4 µM | COLO 205 89.9 µM | UACC-62 43.1 µM | M14 47.2 µM | SK-MEL-5 40.8 µM | CAKI-1 32.3 µM | OVCAR-4 28.9 µM | OVCAR-5 > 100 µM | Malme-3M 40.6 µM | HOP-62 83.4 µM | SK-MEL-2 24.9 µM | TK-10 44.7 µM | MOLT-4 42.3 µM | RXF 393 23.7 µM

Cc1nc2ccccc2nc1NS(=O)(=O)c1ccc(N)cc1
inactive: HL-60 > 100 µM | COLO 205 > 100 µM | UACC-62 > 100 µM | SF-539 > 100 µM | M14 > 100 µM | SK-MEL-5 > 100 µM | CAKI-1 > 100 µM | OVCAR-4 > 100 µM | OVCAR-5 > 100 µM | HOP-92 > 100 µM | Malme-3M > 100 µM | HOP-62 > 100 µM | SK-MEL-2 > 100 µM | TK-10 > 100 µM | MOLT-4 > 100 µM | RXF 393 > 100 µM

O=c1[nH]c(=O)n(C2CC(O)C(CO)O2)cc1COCC(F)(F)F (stereo not given)
inactive: HL-60 > 100 µM | COLO 205 > 100 µM | UACC-62 > 100 µM | SF-539 > 100 µM | M14 > 100 µM | SK-MEL-5 > 100 µM | CAKI-1 > 100 µM | OVCAR-4 > 100 µM | OVCAR-5 > 100 µM | HOP-92 > 100 µM | Malme-3M > 100 µM | HOP-62 > 100 µM | SK-MEL-2 > 100 µM | TK-10 > 100 µM | MOLT-4 > 100 µM | RXF 393 > 100 µM

C#CCOCn1cnc2c(N)ncnc21
inactive: COLO 205 > 100 µM | UACC-62 > 100 µM | SF-539 > 100 µM | M14 > 100 µM | SK-MEL-5 > 100 µM | CAKI-1 > 100 µM | OVCAR-4 > 100 µM | OVCAR-5 > 100 µM | HOP-92 > 100 µM | Malme-3M > 100 µM | HOP-62 > 100 µM | SK-MEL-2 > 100 µM | TK-10 > 100 µM | MOLT-4 > 100 µM

CC1=CC2C(=O)N(c3ccccc3)C(=O)C2CC1n1[nH]c(=O)n(Cc2ccccc2)c1=O (stereo not given)
inactive: HL-60 > 100 µM | COLO 205 > 100 µM | UACC-62 > 100 µM | SF-539 > 100 µM | M14 > 100 µM | SK-MEL-5 > 100 µM | CAKI-1 > 100 µM | OVCAR-4 > 100 µM | OVCAR-5 > 100 µM | HOP-92 > 100 µM | Malme-3M > 100 µM | HOP-62 > 100 µM | SK-MEL-2 > 100 µM | TK-10 > 100 µM | RXF 393 > 100 µM

O=C1C[C@H]2CC3(CC[C@H]2CN1)OCCO3
inactive: HL-60 > 100 µM | COLO 205 > 100 µM | UACC-62 > 100 µM | SF-539 > 100 µM | M14 > 100 µM | SK-MEL-5 > 100 µM | CAKI-1 > 100 µM | OVCAR-4 > 100 µM | HOP-92 > 100 µM | Malme-3M > 100 µM | HOP-62 > 100 µM | SK-MEL-2 > 100 µM | TK-10 > 100 µM | MOLT-4 > 100 µM | RXF 393 > 100 µM

O=C(CCC(=O)Nc1ccc(Cl)c(Cl)c1)CC(=O)c1ccc(Cl)cc1
inactive: HL-60 > 100 µM | COLO 205 > 100 µM | UACC-62 47.8 µM | SF-539 > 100 µM | M14 > 100 µM | CAKI-1 > 100 µM | OVCAR-4 > 100 µM | OVCAR-5 > 100 µM | HOP-92 24.8 µM | Malme-3M > 100 µM | SK-MEL-2 > 100 µM | TK-10 > 100 µM | MOLT-4 > 100 µM

O=C(c1ccc([N+](=O)[O-])cc1[N+](=O)[O-])N(/N=C/C=C/c1ccccc1)c1nnc(-c2ccccc2)c(-c2ccccc2)n1
inactive: HL-60 21.6 µM | COLO 205 41.6 µM | UACC-62 20.6 µM | SF-539 15.2 µM | M14 30.6 µM | SK-MEL-5 30.6 µM | CAKI-1 25.4 µM | OVCAR-4 20.8 µM | OVCAR-5 > 100 µM | HOP-92 20.5 µM | Malme-3M 43.8 µM | HOP-62 86.1 µM | SK-MEL-2 31 µM | TK-10 27.2 µM | MOLT-4 23.6 µM | RXF 393 22.8 µM
